In patent US20220143152A1, “USE OF PEPTIDE DERIVED FROM H-REV107” (GJMEDI INC., priority 2019, published 2022):

B1: H-REV107 protein: H-REV107 (HRAS-like suppressor 3), a growth inhibitory RAS target gene product (protein, UniProt P53816 1-162, looked up)
Phospholipase A and …: MRAPIPEPKPGDLIEIFRPFYRHWAIYVGDGYVVHLAPPSEVAGAGAASVMSALTDKAIVKKELLYDVAGSDKYQVNNKHDDKYSPLPCSKIIQRAEELVGQEVLYKLTSENCEHFVNELRYGVARSDQVRDVIIAASVAGMGLAAMSLIGVMFSRNKRQKQ

Columns and labels:
[1] = tested on: AsPC-1 (pancreatic cancer) cell-line; type: cell-based; settings: 72 h
Description: (§1) Cancer cell-lines used in this example were SW480 (colon cancer), AsPC-1 (pancreatic cancer), NCI-H23 (lung cancer), NCI-H460 (lung cancer) and HCT116 (colon cancer) cell-lines. Specifically, for HCT116 and NCI-H460 cell-lines, 100 μl of a culture medium containing 2×10^3 cells per well; for SW480 and NCI-H23 cell-lines, 100 μl of a culture medium containing 5×10^3 cells per well; and, for AsPC-1 cell-line, 100 μl of a culture solution containing 1×10^4 cells per well, respectively, were seeded. The seeded cells were cultured for 24 hours for adhesion to the well, and the medium was changed. […] After completion of the culture, a cell counting kit-8 (CCK-8) solution (10 μl/well) was added, and the cells were further cultured for 4 hours in a CO2 incubator maintained at 37° C.

[2] = tested on: SW480 (colon cancer) cell-line; type: cell-based; settings: 72 h
Description: as §1

[3] = tested on: HCT116 (colon cancer) cell-line; assay: Cancer inhibitory activity, CCK-8; type: cell-based; settings: HCT-116, 72 hours treatment
Description: as §1

[4] = tested on: NCI-H23 (lung cancer) cell-line; assay: Cancer inhibitory activity, CCK-8; type: cell-based; settings: NCI-H23, 72 hours treatment
Description: as §1

[5] = tested on: NCI-H460 (lung cancer) cell-line; assay: Cancer inhibitory activity, CCK-8; type: cell-based; settings: NCI-H460, 72 hours treatment
Description: as §1

mutant KRAS G12V = mutant KRAS G12V (Homo sapiens, UniProt P01116, G12V); assay: GTP binding assay; type: biochemical; settings: in the presence of H-REV107 protein, FIG. 3a
Description: The prepared mixture was incubated with a binding solution (50 mM Hepes (pH 7.5), 100 mM NaCl, 2 mM MgCl2, 1 mM EDTA and 1 mM DTT). The culture was passed through Ni-NTA resin and then bound at 4° C. […] GTP (2,500 cpm/pmol) and […] To terminate binding, a washing buffer (20 mM Tris-HCl (pH 7.4), 100 mM NaCl and 2 mM MgCl2) was added. After washing, the bound protein was eluted using 200 mM imidazole. In this example, bovine serum albumin was used as a negative control. Radioactive GTP bound to the protein was quantified by a liquid scintillation counter, and the results thereof are shown in FIG. 3.

| Molecule | GI50 [1] [µM] | GI50 [2] [µM] | GI50 [3] | GI50 [4] | GI50 [5] | radioactive GTP binding activity of the mutant KRAS G12V (mutant KRAS G12V) |
| --- | --- | --- | --- | --- | --- | --- |
| CC(C)C[C@H](N)C(=O)N[C@@H](Cc1ccc(O)cc1)C(=O)N[C@@H](CC(=O)O)C(=O)N[C@H](C(=O)N[C@@H](C)C(=O)NCC(=O)N[C@@H](CO)C(=O)N[C@@H](CC(=O)O)C(=O)N[C@@H](CCCCN)C(=O)N[C@@H](Cc1ccc(O)cc1)C(=O)O)C(C)C [CY101] | 417 | 358 | millimolar (mM) range | millimolar (mM) range | millimolar (mM) range |  |
| B1 |  |  |  |  |  | somewhat reduced |
